By IC50 is commonly meant the point on the concentration scale where inhibition reaches its midpoint. Low readings indicate higher potency, high ones lower potency.

The values that follow come from article PMC4858736, “Inhibition of cyclic diadenylate cyclase, DisA, by polyphenols” (Scientific Reports, 2016).

The assay addresses T1, DisA (Bacillus subtilis, UniProt P37573).
T1 sequence (P37573 1-360): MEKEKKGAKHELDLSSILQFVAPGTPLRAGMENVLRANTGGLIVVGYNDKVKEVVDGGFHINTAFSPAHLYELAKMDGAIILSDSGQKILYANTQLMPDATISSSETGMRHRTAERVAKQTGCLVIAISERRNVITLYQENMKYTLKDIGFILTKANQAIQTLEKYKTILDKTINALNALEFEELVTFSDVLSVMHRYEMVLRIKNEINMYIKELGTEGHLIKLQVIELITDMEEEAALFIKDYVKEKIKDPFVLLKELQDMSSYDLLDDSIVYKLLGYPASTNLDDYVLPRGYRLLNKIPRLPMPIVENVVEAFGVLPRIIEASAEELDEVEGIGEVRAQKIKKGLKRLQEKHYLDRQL
The assay can be described thus: […]-ATP TLC diadenylate cyclase assay with purified DisA; HPLC and coralyne assays. It counts as biochemical.

`O=C(O[C@@H]1Cc2c(O)cc(O)cc2O[C@@H]1c1cc(O)c(O)c2c(=O)c(O)cc([C@H]3Oc4cc(O)cc(O)c4C[C@H]3O)cc12)c1cc(O)c(O)c(O)c1` [TF2B, theaflavin-3′-gallate]: the IC50 amounted to 23.6 µM. This lies in the double-digit micromolar range.
